Active and inactive are the calls of the source.
Experiments:
Assay type in all cases: functional
[1] = target: Glycogen synthase kinase-3 beta (Homo sapiens, UniProt P49841);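 note: value comes from a broad kinome profiling panel, with GSK3B as the panel member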
[2] = target: Dual specificity protein kinase CLK2 (Homo sapiens, UniProt P49760)
[3] = target: 5'-AMP-activated protein kinase catalytic subunit alpha-1 (Homo sapiens, UniProt Q13131)
[4] = target: cAMP-dependent protein kinase catalytic subunit alpha (Homo sapiens, UniProt P17612)
[5] = target: Calcium/calmodulin-dependent protein kinase type 1 (Homo sapiens, UniProt Q14012)
[6] = target: Aurora kinase B (Homo sapiens, UniProt Q96GD4)
[7] = target: T1, Serine/threonine-protein kinase Chk1 (Homo sapiens, UniProt O14757);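 note: measured as one member of a kinome-wide kinase profiling panel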
T1 sequence (O14757 whole entry): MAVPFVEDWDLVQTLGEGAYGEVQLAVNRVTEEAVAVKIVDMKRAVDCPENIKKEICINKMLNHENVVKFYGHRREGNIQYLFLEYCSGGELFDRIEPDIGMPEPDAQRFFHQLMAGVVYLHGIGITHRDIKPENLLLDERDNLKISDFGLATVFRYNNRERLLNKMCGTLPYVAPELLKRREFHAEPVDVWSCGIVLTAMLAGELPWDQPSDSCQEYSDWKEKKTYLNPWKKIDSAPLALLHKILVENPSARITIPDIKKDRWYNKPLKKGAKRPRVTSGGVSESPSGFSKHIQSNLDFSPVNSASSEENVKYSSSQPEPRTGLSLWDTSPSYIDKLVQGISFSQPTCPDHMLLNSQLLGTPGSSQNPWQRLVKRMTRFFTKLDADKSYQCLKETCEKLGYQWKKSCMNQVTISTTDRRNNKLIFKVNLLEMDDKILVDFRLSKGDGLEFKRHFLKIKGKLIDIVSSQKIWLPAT

[8] = target: T2, Serine/threonine-protein kinase TAO1 (Homo sapiens, UniProt Q7L7X3)
T2 sequence (Q7L7X3 whole entry): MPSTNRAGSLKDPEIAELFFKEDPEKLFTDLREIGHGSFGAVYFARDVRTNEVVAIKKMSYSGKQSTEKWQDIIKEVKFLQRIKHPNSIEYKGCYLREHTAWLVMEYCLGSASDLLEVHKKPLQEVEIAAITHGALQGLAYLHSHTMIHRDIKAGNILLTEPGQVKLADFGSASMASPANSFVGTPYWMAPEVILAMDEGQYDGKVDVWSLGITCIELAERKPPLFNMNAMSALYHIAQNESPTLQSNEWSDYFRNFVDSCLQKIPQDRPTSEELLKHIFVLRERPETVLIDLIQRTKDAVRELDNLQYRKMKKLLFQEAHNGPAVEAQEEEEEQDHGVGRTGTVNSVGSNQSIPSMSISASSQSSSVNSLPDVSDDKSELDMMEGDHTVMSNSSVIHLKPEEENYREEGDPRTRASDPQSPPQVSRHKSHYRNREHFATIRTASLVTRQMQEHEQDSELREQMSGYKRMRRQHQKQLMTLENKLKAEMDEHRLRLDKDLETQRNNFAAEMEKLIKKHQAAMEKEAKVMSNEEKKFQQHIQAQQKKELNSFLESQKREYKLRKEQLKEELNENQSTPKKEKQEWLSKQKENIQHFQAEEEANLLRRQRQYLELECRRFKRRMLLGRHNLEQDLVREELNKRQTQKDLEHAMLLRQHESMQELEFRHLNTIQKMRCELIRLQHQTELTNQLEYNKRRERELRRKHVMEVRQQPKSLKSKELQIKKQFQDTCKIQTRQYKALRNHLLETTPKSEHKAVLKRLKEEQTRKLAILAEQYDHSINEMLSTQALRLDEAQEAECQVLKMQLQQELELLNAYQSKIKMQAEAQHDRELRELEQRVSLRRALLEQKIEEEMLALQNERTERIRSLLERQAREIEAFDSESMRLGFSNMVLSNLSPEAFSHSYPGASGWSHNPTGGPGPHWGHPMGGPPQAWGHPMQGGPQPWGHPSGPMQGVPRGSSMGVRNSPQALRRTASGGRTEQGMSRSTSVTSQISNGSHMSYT

[9] = target: Dual specificity tyrosine-phosphorylation-regulated kinase 1A (Homo sapiens, UniProt Q13627);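 note: measured against DYRK1A as one member of a broad kinome profiling panel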
[10] = target: Mitogen-activated protein kinase kinase kinase kinase 4 (Homo sapiens, UniProt O95819)
[11] = target: Fibroblast growth factor receptor 1 (Homo sapiens, UniProt P11362)
[12] = target: Serine/threonine-protein kinase PLK3 (Homo sapiens, UniProt Q9H4B4)
[13] = target: Vascular endothelial growth factor receptor 1 (Homo sapiens, UniProt P17948);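 note: measured within a kinome-wide profiling panel, FLT1 as the panel member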
[14] = target: T3, cAMP-dependent protein kinase catalytic subunit PRKX (Homo sapiens, UniProt P51817)
T3 sequence (P51817 whole entry): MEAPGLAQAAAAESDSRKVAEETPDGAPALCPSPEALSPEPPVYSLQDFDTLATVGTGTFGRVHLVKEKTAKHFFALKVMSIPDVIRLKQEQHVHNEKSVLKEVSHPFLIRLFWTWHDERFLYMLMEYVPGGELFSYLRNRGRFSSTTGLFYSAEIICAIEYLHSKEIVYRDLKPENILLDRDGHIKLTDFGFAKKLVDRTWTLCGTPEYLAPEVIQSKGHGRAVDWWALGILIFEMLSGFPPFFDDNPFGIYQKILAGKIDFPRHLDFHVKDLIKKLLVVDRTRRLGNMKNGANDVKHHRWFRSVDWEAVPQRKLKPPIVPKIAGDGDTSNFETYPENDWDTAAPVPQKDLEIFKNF

[15] = target: ALK tyrosine kinase receptor (Homo sapiens, UniProt Q9UM73);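 note: ALK tested as one member of a kinase panel screen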
[16] = target: Macrophage colony-stimulating factor 1 receptor (Homo sapiens, UniProt P07333);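 note: value comes from the Navigating the Kinome screening panel, CSF1R member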
[17] = target: Serine/threonine-protein kinase PAK 4 (Homo sapiens, UniProt O96013);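 note: value obtained within a kinome profiling panel in which PAK4 was one of the panel members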
[18] = target: Death-associated protein kinase 3 (Homo sapiens, UniProt O43293);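 note: measured as one member of a kinome-wide profiling panel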
[19] = target: Leukocyte tyrosine kinase receptor (Homo sapiens, UniProt P29376); test: Navigating the Kinome. Panel member name: LTK
[20] = target: Platelet-derived growth factor receptor alpha (Homo sapiens, UniProt P16234); test: Navigating the Kinome. Panel member name: PDGFRA
[21] = target: Dual specificity mitogen-activated protein kinase kinase 1 (Homo sapiens, UniProt Q02750); test: Navigating the Kinome. Panel member name: MAP2K1

Fibroblast growth factor receptor 1, sequence (P11362 whole entry): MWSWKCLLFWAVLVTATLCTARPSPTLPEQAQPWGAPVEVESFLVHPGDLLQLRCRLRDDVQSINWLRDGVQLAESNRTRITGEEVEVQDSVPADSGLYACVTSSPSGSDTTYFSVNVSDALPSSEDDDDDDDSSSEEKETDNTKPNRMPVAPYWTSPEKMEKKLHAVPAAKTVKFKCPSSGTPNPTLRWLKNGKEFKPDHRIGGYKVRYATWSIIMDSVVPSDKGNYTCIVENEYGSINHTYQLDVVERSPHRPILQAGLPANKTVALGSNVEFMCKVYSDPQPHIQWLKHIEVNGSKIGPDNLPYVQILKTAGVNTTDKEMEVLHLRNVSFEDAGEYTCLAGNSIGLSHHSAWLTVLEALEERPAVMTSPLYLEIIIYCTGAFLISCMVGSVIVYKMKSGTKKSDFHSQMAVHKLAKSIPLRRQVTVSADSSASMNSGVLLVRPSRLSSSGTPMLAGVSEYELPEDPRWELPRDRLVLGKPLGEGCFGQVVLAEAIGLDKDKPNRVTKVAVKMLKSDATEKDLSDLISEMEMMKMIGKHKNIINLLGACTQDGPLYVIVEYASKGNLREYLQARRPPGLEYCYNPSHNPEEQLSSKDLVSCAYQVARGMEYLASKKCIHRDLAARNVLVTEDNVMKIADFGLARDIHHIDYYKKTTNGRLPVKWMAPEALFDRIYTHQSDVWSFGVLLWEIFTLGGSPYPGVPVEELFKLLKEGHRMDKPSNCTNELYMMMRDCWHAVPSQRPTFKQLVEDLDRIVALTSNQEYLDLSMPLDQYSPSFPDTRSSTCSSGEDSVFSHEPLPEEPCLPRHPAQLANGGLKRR
Macrophage colony-stimulating factor 1 receptor, sequence (P07333 whole entry): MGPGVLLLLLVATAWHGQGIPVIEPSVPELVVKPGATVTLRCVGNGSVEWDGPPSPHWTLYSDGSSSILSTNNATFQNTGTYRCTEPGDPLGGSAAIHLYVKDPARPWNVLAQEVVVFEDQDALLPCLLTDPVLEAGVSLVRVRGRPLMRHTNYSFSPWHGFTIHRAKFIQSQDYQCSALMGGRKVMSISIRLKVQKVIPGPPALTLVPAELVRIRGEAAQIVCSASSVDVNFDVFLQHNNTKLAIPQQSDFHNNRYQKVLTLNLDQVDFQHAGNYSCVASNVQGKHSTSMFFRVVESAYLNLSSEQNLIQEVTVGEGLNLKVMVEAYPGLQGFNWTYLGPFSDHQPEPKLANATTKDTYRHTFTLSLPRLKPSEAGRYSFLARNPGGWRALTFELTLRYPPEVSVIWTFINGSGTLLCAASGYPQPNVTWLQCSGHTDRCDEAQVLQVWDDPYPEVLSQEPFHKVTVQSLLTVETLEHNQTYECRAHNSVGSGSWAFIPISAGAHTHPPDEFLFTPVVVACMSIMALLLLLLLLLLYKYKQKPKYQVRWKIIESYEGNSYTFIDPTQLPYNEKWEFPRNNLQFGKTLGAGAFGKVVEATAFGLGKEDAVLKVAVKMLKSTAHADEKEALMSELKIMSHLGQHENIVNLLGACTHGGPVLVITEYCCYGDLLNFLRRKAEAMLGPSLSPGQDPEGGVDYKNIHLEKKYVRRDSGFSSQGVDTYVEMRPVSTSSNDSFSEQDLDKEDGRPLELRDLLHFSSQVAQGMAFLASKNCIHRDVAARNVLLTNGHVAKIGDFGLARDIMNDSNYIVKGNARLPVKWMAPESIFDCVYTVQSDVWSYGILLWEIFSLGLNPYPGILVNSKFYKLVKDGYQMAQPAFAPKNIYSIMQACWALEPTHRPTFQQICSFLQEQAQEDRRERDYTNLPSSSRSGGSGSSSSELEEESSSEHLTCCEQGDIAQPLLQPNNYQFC
Aurora kinase B, sequence (Q96GD4 whole entry): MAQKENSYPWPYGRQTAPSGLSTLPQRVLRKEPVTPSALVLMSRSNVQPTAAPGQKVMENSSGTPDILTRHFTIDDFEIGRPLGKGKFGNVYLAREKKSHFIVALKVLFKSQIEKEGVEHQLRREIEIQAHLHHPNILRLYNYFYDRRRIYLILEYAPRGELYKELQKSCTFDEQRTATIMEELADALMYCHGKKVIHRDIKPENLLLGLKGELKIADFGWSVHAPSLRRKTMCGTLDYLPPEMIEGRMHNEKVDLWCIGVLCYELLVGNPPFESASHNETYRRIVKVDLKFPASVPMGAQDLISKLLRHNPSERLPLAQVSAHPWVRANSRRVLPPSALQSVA
Dual specificity protein kinase CLK2, sequence (P49760 whole entry): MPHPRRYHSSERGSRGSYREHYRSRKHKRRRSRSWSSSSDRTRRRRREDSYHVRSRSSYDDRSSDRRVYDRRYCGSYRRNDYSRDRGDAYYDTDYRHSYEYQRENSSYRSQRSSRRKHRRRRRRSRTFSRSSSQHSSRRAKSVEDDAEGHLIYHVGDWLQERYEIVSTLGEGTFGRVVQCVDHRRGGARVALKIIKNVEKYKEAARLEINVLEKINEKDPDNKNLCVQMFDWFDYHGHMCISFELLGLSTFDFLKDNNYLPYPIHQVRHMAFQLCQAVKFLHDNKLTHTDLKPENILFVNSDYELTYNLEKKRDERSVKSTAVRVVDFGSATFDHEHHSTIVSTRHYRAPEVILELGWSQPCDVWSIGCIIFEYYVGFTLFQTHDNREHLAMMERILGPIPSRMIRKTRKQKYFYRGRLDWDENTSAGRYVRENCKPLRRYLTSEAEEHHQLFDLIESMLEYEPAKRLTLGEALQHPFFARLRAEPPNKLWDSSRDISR
ALK tyrosine kinase receptor, sequence (Q9UM73 whole entry): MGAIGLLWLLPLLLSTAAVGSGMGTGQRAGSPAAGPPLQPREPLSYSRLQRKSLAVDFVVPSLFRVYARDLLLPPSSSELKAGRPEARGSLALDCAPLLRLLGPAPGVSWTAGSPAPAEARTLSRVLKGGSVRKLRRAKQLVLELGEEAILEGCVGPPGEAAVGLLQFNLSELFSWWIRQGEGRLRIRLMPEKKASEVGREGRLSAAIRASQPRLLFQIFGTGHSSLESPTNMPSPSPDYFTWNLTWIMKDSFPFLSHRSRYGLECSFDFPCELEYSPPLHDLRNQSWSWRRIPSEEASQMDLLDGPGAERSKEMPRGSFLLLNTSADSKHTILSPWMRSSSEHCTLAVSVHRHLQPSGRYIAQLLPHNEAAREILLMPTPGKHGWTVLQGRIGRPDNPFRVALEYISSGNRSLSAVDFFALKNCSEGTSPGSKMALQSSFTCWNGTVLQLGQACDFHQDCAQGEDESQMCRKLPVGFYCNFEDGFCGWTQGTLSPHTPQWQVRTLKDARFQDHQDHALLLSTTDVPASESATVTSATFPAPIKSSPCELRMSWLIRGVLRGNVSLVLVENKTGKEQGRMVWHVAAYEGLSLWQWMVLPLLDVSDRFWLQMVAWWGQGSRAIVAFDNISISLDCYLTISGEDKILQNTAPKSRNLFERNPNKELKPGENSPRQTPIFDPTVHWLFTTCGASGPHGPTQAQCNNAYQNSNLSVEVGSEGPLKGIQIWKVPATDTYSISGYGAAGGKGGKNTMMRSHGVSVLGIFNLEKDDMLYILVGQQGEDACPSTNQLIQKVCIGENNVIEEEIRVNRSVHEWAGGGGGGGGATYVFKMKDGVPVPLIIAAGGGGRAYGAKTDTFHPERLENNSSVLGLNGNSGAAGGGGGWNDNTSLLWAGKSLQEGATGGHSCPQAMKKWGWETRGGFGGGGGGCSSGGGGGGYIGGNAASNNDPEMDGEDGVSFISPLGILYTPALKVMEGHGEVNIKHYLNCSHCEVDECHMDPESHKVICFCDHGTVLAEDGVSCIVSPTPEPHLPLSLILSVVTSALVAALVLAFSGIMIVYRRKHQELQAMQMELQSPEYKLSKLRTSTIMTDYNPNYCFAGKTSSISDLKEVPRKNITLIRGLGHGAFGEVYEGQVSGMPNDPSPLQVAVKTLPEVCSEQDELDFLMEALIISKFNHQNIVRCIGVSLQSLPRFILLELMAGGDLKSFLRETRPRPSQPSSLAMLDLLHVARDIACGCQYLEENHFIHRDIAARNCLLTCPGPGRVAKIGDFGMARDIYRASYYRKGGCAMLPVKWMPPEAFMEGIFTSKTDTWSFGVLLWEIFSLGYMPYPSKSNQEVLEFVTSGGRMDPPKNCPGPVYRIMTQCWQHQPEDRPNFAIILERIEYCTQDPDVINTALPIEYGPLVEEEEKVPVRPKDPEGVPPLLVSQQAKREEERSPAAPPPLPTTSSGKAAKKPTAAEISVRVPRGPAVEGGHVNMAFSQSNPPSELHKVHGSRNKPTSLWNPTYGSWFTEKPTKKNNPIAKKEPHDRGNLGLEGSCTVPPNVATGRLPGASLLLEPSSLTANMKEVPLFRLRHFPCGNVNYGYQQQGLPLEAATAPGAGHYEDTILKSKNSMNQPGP
Death-associated protein kinase 3, sequence (O43293 whole entry): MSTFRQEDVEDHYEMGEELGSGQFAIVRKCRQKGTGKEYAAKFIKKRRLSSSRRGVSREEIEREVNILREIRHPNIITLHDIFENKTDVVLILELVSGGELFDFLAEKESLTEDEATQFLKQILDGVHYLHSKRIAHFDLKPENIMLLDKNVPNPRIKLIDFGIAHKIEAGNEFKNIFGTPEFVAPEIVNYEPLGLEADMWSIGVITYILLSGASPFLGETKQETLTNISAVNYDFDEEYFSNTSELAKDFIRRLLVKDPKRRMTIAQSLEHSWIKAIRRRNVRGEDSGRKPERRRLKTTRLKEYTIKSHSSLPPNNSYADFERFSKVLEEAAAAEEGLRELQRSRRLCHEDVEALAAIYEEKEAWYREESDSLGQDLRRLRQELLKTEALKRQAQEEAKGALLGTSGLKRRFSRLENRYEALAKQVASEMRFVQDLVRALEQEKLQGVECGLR

| Structure (SMILES) | Ki [1] | Ki [2] | Ki [3] | Ki [4] | Ki [5] | Ki [6] | Ki [7] | Ki [8] | Ki [9] | Ki [10] | Ki [11] | Ki [12] | Ki [13] | Ki [14] | Ki [15] | Ki [16] | Ki [17] | Ki [18] | Ki [19] | Ki [20] | also measured |
| --- | --- | --- | --- | --- | --- | --- | --- | --- | --- | --- | --- | --- | --- | --- | --- | --- | --- | --- | --- | --- | --- |
| NC1CCC(Nc2nccc(-c3c[nH]c4ncccc34)n2)CC1 (stereo not drawn) | 0.2 µM (active) | 0.00501 µM (active) | 0.126 µM (active) | 0.0501 µM (active) | > 1.26 µM (inactive) | 2 µM (active) | 2 µM (active) | 0.316 µM (active) | 0.00316 µM (active) | 0.0631 µM (active) | 3.98 µM (active) | > 7.94 µM (inactive) | > 0.398 µM (inactive) | 0.00631 µM (active) | > 1.26 µM (inactive) | 0.1 µM (active) | 0.316 µM (active) | 0.158 µM (active) | – | – | – |
| COC(C(=O)N1Cc2[nH]nc(NC(=O)c3ccc(N4CCN(C)CC4)cc3)c2C1)c1ccccc1 (stereo not drawn) | – | – | – | – | > 2.51 µM (inactive) | – | – | – | – | – | – | > 7.94 µM (inactive) | 0.0398 µM (active) | > 2.51 µM (inactive) | – | 0.158 µM (active) | – | 0.794 µM (active) | 0.0316 µM (active) | > 2 µM (inactive) | – |
| CC(C)(O)c1cn(-c2ccc3[nH]ncc3c2)nn1 | 12.6 µM (active) | 6.31 µM (active) | 6.31 µM (active) | 10 µM (active) | – | 31.6 µM (active) | 63.1 µM (active) | 79.4 µM (active) | 5.01 µM (active) | 39.8 µM (active) | 39.8 µM (active) | – | 79.4 µM (active) | 20 µM (active) | 79.4 µM (active) | 39.8 µM (active) | 100 µM (active) | 2 µM (active) | 15.8 µM (active) | 63.1 µM (active) | Ki [21]: 20 µM (active) |
| OCc1cc(-c2ccc3[nH]ncc3c2)on1 | 3.16 µM (active) | 1 µM (active) | 31.6 µM (active) | 5.01 µM (active) | – | 20 µM (active) | 39.8 µM (active) | 79.4 µM (active) | 0.398 µM (active) | 20 µM (active) | 20 µM (active) | – | 25.1 µM (active) | 15.8 µM (active) | 79.4 µM (active) | > 100 µM (inactive) | – | 3.98 µM (active) | 20 µM (active) | 39.8 µM (active) | Ki [21]: 10 µM (active) |
